Reference: paper PMC8391421, “Identification of Novel Positive Allosteric Modulators of Neurotrophin Receptors for the Treatment of Cognitive Dysfunction” (Cells, 2021)

Columns and labels:
[1] = system: extracellular neurotransmitter levels in ventral hippocampus; assay: In vivo microdialysis of neurotransmitters in ventral hippocampus; design: species or system rat
Experimental: The microdialysis experiments were conducted using Pronexus AB, Bromma, Sweden (ethical permit N24/14) on awake, freely moving Sprague Dawley rats (n = 6, 7–8 weeks old from Janvier Labs, Le Genest-Saint-Isle, France) as previously described. On the day of the microdialysis experiment, the rat was in its home cage and placed into a frame of a single-beam locomotor activity monitoring system. Locomotor activity of rats undergoing microdialysis sampling was recorded simultaneously in 5-min intervals. A microdialysis probe (Eicom A-I: 0.22 mm O.D., 4 mm membrane length with 50 kDa cut-off) was inserted into the guide cannula of the awake rat. The probe was connected with fluorinated ethylene propylene (FEP) tubing (0.1 mm I.D.) to the balancing arm of the CMA 120 system for freely moving animals (CMA/Microdialysis) equipped with a 2-channel swivel (Microbiotech/se AB, Stockholm, Sweden). […] Concentrations of acetylcholine (ACh) and glutamate (Glu) in the microdialysis samples were measured using ultra-high performance liquid chromatography tandem mass spectrometry (UHPLC-MS/MS), whereas the levels of the monoamines dopamine (DA), noradrenaline (NA), and […] (5-HT) in the microdialysates were measured using ion-exchange narrow bore column liquid chromatography with electrochemical detection as described elsewhere. […]

[2] = biological target: T1, insulin-like growth factor 1 receptor (IGF1R) (Homo sapiens, UniProt P08069); assay: IGF1R PathHunter cell-based assay (HEK293-IGF1R)
T1 construct: host or cells: HEK293
Text: The human osteosarcoma cell lines U2OS-TrkA/p75, U2OS-TrkB/p75, U2OS-TrkC/p75, U2OS-ratTrkA/p75, U2OS-FGFR1 (fibroblast growth factor receptor 1) as well as the human embryonic kidney cell line HEK293-IGF1R (insulin-like growth factor 1 receptor) from DiscoverX, Birmingham, United Kingdom, were used in the in vitro experiments. Eagle’s minimum essential medium (EMEM) ATCC #30-2003 from LGC Standards AB, Borås, Sweden; Leibovitz’s L15 medium, RPMI1640, fetal bovine serum, horse serum, penicillin/streptomycin, and Hoechst dye purchased from Invitrogen, Gothenburg, Sweden, were also used. Black poly-D-lysine coated 384-well plates (Viewplate) were purchased from PerkinElmer, Upplands Väsby, Sweden, and white 384-well assay plates(3570) were purchased from Corning, Amsterdam, Netherlands. […] Recombinant intracellular domain (ICD) of TrkA (08-186) and single site biotinylated activated (08-486-20N) or non-activated TrkA (08-486-23N) were obtained from Carna Biosciences, Odense, Denmark. […]
U2OS cells were maintained subconfluent in EMEM supplemented with 10% FBS and penicillin/streptomycin/hygromycin and G418. […] The functional (complemented) β-gal will hydrolyze a substrate to generate a luminescence signal. The generated luminescence was read using an EnVision plate reader from PerkinElmer, Upplands Väsby, Sweden, or an ID5 plate reader from Molecular Devices, Berkshire, RG41 5TS UK. […]

T1 sequence (P08069 31-1367): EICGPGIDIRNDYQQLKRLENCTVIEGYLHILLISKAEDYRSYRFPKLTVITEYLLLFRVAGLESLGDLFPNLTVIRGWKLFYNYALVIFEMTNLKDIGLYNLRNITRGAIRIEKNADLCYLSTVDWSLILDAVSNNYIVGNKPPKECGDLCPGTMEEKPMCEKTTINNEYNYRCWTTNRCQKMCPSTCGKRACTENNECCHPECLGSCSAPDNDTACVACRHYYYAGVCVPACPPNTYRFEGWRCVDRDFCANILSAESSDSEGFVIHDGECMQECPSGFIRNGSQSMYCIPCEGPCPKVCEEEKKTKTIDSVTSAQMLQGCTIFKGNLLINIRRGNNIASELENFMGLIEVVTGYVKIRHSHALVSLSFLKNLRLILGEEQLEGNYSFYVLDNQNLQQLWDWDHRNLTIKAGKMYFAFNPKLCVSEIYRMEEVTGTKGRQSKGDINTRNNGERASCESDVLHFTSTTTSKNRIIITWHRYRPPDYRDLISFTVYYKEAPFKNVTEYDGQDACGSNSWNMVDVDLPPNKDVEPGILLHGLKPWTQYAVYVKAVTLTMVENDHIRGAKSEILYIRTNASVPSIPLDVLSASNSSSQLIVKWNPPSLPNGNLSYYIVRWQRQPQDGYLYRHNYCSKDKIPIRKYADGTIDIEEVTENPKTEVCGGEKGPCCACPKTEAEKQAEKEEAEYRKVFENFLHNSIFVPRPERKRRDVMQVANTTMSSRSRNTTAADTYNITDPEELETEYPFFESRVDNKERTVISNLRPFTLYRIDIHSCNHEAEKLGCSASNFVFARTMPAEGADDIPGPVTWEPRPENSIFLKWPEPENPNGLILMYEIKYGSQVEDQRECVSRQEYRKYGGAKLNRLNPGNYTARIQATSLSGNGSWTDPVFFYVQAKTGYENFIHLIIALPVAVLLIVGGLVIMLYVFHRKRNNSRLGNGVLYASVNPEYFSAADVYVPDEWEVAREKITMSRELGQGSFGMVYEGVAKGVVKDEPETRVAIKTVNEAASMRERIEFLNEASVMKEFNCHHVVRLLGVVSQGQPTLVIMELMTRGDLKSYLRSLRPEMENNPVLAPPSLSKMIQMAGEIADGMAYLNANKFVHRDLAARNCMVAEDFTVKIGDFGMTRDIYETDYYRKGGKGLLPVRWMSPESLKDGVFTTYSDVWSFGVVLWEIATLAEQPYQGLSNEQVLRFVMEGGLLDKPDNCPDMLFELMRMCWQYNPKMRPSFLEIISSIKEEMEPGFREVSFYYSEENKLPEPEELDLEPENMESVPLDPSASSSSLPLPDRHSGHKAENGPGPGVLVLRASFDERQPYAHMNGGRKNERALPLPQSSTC

## Cc1cc(-n2c(=O)[nH]c(=O)n(C)c2=O)ccc1Oc1ccc(S(=O)(=O)C(F)(F)F)cc1 [ACD855, Toltrazuril-sulfone]
[1]; local infusion of 30 µM over four hours, freely moving rats, vs vehicle (aCSF)
  increase in extracellular ACh levels in vHPC: 40%
[1]; local infusion of 30 µM, vHPC
  levels of glutamate, noradrenaline, dopamine and 5-hydroxytryptamine: not affected
[2]
  EC50: 900 nM
  IGF1R Effect (efficacy): 25%
